Patent publication US20240158370A1, “CK1 alpha AND DUAL CK1 alpha / GSPT1 DEGRADING COMPOUNDS” (Innovo Therapeutics, Inc., priority 2022, published 2024)

Columns and labels:
[1] = biological target: T1, CK1α (Homo sapiens, UniProt P48729+Q96SW2); experiment: HiBiT degradation assay, CK1α, Procedure A; format: cell-based; conditions: six hours incubation
T1 construct: CSNK1A1-HiBit KI HEK293(LgBit) Cells; host or cells: HEK293(LgBit) knock-in cells
Method in brief: (§1)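 Cells in DMEM+10% FBS at 1×10^6 cells/ml were added to pre-spotted compound (10-point dose response, 10 μM to 0.005 μM, 0.1% DMSO) and incubated 6 h at 37° C. Nano-Glo HiBiT lytic reagent was added and luminescence read. DC50 and Ymin came from 4-parameter curve fits.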

[2] = biological target: GSPT1 (Homo sapiens, UniProt P15170+Q96SW2); experiment: HiBiT degradation assay, GSPT1, Procedure A; format: cell-based; set-up: HiBit-GSPT1 KI HEK293(LgBit) Cells; host or cells: HEK293(LgBit) knock-in cells; conditions: six hours incubation
Chain of GSPT1 (P15170 whole entry): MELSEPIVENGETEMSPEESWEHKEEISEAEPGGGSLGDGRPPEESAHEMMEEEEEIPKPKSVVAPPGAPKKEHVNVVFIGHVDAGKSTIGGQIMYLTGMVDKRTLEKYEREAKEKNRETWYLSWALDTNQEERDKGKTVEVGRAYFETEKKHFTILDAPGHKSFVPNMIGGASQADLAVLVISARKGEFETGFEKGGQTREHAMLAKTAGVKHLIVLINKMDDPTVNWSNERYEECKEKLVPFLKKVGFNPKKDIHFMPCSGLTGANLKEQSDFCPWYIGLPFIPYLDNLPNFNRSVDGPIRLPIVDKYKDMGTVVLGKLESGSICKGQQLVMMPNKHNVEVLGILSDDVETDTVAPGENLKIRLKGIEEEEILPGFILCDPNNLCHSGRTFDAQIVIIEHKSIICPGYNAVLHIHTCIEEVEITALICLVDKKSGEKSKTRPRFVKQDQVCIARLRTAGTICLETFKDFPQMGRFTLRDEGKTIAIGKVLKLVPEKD
Chain of GSPT1 (Q96SW2 whole entry): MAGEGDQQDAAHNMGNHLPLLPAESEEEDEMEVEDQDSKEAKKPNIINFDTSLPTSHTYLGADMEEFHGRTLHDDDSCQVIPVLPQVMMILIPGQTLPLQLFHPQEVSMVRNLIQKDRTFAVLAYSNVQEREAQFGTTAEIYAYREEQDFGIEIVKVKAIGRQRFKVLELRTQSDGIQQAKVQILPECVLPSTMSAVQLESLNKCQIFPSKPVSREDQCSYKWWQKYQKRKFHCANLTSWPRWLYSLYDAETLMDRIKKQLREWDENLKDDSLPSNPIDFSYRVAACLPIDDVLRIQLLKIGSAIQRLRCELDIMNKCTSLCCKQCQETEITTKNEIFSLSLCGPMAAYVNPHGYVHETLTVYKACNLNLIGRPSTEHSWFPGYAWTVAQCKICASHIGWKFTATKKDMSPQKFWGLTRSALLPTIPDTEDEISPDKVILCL
Chain of GSPT1 (Q16531 whole entry partner): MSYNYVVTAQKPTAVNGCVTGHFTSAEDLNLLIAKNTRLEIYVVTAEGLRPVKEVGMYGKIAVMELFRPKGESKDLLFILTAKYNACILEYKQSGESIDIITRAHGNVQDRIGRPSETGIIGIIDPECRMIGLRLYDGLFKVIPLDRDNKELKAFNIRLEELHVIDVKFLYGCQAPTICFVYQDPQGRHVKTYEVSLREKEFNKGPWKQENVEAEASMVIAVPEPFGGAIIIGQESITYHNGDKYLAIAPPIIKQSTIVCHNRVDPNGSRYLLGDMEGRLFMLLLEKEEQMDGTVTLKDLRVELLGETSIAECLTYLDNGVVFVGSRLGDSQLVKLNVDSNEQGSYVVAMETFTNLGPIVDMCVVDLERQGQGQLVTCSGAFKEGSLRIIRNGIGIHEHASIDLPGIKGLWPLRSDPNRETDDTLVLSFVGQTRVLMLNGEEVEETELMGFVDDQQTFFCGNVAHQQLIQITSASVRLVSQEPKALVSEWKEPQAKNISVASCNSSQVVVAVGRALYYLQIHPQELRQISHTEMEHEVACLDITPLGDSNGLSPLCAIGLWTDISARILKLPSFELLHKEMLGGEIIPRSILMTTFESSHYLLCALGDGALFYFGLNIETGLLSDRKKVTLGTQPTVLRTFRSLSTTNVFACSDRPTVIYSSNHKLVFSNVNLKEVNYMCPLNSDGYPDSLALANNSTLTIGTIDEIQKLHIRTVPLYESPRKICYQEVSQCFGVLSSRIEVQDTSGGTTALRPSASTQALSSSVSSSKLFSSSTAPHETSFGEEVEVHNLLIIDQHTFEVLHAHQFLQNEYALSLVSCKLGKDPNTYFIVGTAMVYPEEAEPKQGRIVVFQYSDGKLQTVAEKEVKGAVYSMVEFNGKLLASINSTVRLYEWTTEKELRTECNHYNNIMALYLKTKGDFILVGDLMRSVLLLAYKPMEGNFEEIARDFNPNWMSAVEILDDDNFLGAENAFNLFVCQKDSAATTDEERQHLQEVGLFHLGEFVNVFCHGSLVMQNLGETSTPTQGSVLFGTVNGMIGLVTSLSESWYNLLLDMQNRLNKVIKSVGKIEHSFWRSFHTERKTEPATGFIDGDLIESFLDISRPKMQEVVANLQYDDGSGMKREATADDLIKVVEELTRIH
Method in brief: as §1

T1 sequence (P48729 whole entry): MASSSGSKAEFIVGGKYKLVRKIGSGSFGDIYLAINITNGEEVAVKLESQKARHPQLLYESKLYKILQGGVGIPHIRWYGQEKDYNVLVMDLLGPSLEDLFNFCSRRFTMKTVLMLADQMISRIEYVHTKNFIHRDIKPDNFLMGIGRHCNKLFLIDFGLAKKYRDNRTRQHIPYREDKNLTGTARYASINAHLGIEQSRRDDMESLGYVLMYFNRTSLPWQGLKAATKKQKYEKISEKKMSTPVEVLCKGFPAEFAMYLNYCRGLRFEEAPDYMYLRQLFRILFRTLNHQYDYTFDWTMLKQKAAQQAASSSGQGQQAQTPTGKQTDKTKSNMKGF
T1 sequence (Q96SW2 whole entry): as the sequence (Q96SW2 whole entry) above
T1 sequence (Q16531 whole entry partner): as the sequence (Q16531 whole entry partner) above

| Structure (SMILES) | CK1α Ymin [1] | DC50 [1] | DC50 [2] | GSPT1 Ymin [2] |
| --- | --- | --- | --- | --- |
| Cn1cnc(-c2ccc3c(c2)CN(C2CCC(=O)NC2=O)C3=O)c1-c1ccccc1F (centres unmarked) [Example 164] | C (C = 0-10% remaining) | < 0.025 µM | < 0.025 µM | E (E = >25-75% remaining) |
| Cc1ccc(-c2c(-c3ccc4c(c3)CN(C3CCC(=O)NC3=O)C4=O)ncn2C)c(C)c1 (centres unmarked) [Example 166] | E (E = >25-75% remaining) | < 0.025 µM | ≥ 0.025 µM | E (E = >25-75% remaining) |
| Cc1cccc(-c2c(-c3ccc4c(c3)CN(C3CCC(=O)NC3=O)C4=O)ncn2C)c1C (centres unmarked) [Example 167] | E (E = >25-75% remaining) | < 0.025 µM | < 0.025 µM | F (F = >75-100% remaining) |
| Cc1c(F)cccc1-c1c(-c2ccc3c(c2)CN(C2CCC(=O)NC2=O)C3=O)ncn1C (centres unmarked) [Example 169] | E (E = >25-75% remaining) | < 0.025 µM | ≥ 0.025 µM | F (F = >75-100% remaining) |
| Cc1ccc(F)c(-c2c(-c3ccc4c(c3)CN(C3CCC(=O)NC3=O)C4=O)ncn2C)c1 (centres unmarked) [Example 170] | D (D = >10- 25% remaining) | < 0.025 µM | ≥ 0.025 µM | F (F = >75-100% remaining) |
| Cc1cccc(-c2c(-c3ccc4c(c3)CN(C3CCC(=O)NC3=O)C4=O)ncn2C)c1F (centres unmarked) [Example 171] | D (D = >10- 25% remaining) | < 0.025 µM | < 0.025 µM | F (F = >75-100% remaining) |
| Cc1cccc(F)c1-c1c(-c2ccc3c(c2)CN(C2CCC(=O)NC2=O)C3=O)ncn1C (centres unmarked) [Example 172] | E (E = >25-75% remaining) | < 0.025 µM | ≥ 0.025 µM | F (F = >75-100% remaining) |
| Cn1cnc(-c2ccc3c(c2)CN(C2CCC(=O)NC2=O)C3=O)c1-c1ccc(F)cc1F (centres unmarked) [Example 176] | D (D = >10- 25% remaining) | < 0.025 µM | < 0.025 µM | E (E = >25-75% remaining) |
| Cn1cnc(-c2ccc3c(c2)CN(C2CCC(=O)NC2=O)C3=O)c1-c1ccc(F)c(F)c1 (centres unmarked) [Example 177] | D (D = >10- 25% remaining) | < 0.025 µM | < 0.025 µM | E (E = >25-75% remaining) |
| Cn1cnc(-c2ccc3c(c2)CN(C2CCC(=O)NC2=O)C3=O)c1-c1cc(F)ccc1F (centres unmarked) [Example 179] | D (D = >10- 25% remaining) | < 0.025 µM | < 0.025 µM | E (E = >25-75% remaining) |
| Cc1cc(C#N)ccc1-c1c(-c2ccc3c(c2)CN(C2CCC(=O)NC2=O)C3=O)ncn1C (centres unmarked) [Example 180] | E (E = >25-75% remaining) | ≥ 0.025 µM | ≥ 0.025 µM | F (F = >75-100% remaining) |
| Cn1cnc(-c2ccc3c(c2)CN(C2CCC(=O)NC2=O)C3=O)c1-c1ccc(Cl)s1 (centres unmarked) [Example 181] | C (C = 0-10% remaining) | < 0.025 µM | ≥ 0.025 µM | E (E = >25-75% remaining) |
| CC(C)c1ccccc1-c1c(-c2ccc3c(c2)CN(C2CCC(=O)NC2=O)C3=O)ncn1C (centres unmarked) [Example 182] | E (E = >25-75% remaining) | < 0.025 µM | ≥ 0.025 µM | F (F = >75-100% remaining) |
| CC(C)c1cccc(-c2c(-c3ccc4c(c3)CN(C3CCC(=O)NC3=O)C4=O)ncn2C)c1 (centres unmarked) [Example 183] | E (E = >25-75% remaining) | < 0.025 µM | ≥ 0.025 µM | F (F = >75-100% remaining) |
| Cn1cnc(-c2ccc3c(c2)CN(C2CCC(=O)NC2=O)C3=O)c1-c1cc(F)cc(C#N)c1 (centres unmarked) [Example 185] | D (D = >10- 25% remaining) | < 0.025 µM | ≥ 0.025 µM | F (F = >75-100% remaining) |
| Cn1cnc(-c2ccc3c(c2)CN(C2CCC(=O)NC2=O)C3=O)c1-c1cc(C#N)ccc1F (centres unmarked) [Example 186] | E (E = >25-75% remaining) | ≥ 0.025 µM | ≥ 0.025 µM | F (F = >75-100% remaining) |
| Cn1cnc(-c2ccc3c(c2)CN(C2CCC(=O)NC2=O)C3=O)c1-c1ccc(C#N)cc1F (centres unmarked) [Example 187] | D (D = >10- 25% remaining) | < 0.025 µM | ≥ 0.025 µM | F (F = >75-100% remaining) |
| COc1ccc(-c2c(-c3ccc4c(c3)CN(C3CCC(=O)NC3=O)C4=O)ncn2C)c(C)c1 (centres unmarked) [Example 188] | C (C = 0-10% remaining) | < 0.025 µM | < 0.025 µM | E (E = >25-75% remaining) |
| COc1ccc(-c2c(-c3ccc4c(c3)CN(C3CCC(=O)NC3=O)C4=O)ncn2C)c(F)c1 (centres unmarked) [Example 189] | C (C = 0-10% remaining) | < 0.025 µM | < 0.025 µM | E (E = >25-75% remaining) |
| COc1cccc(-c2c(-c3ccc4c(c3)CN(C3CCC(=O)NC3=O)C4=O)ncn2C)c1F (centres unmarked) [Example 190] | E (E = >25-75% remaining) | < 0.025 µM | < 0.025 µM | E (E = >25-75% remaining) |
| COc1ccc(F)cc1-c1c(-c2ccc3c(c2)CN(C2CCC(=O)NC2=O)C3=O)ncn1C (centres unmarked) [Example 191] | E (E = >25-75% remaining) | < 0.025 µM | < 0.025 µM | E (E = >25-75% remaining) |
| COc1cc(F)ccc1-c1c(-c2ccc3c(c2)CN(C2CCC(=O)NC2=O)C3=O)ncn1C (centres unmarked) [Example 192] | E (E = >25-75% remaining) | < 0.025 µM | < 0.025 µM | E (E = >25-75% remaining) |
| COc1ccc(F)c(-c2c(-c3ccc4c(c3)CN(C3CCC(=O)NC3=O)C4=O)ncn2C)c1 (centres unmarked) [Example 193] | D (D = >10- 25% remaining) | < 0.025 µM | < 0.025 µM | F (F = >75-100% remaining) |
| COc1ccc(-c2c(-c3ccc4c(c3)CN(C3CCC(=O)NC3=O)C4=O)ncn2C)cc1F (centres unmarked) [Example 194] | C (C = 0-10% remaining) | < 0.025 µM | < 0.025 µM | E (E = >25-75% remaining) |

Other lines, results leading:

| CK1α Ymin [1] | DC50 [1] | DC50 [2] | GSPT1 Ymin [2] | Structure (SMILES) |
| --- | --- | --- | --- | --- |
| E (E = >25-75% remaining) | < 0.025 µM | ≥ 0.025 µM | F (F = >75-100% remaining) | Cn1ncc(-c2ccc3c(c2)CN(C2CCC(=O)NC2=O)C3=O)c1-c1ccc2c(c1)OCC2 (centres unmarked) [Example 155] |
| D (D = >10- 25% remaining) | ≥ 0.025 µM | ≥ 0.025 µM | F (F = >75-100% remaining) | Cn1ncc(-c2ccc3c(c2)CN(C2CCC(=O)NC2=O)C3=O)c1-c1ccc(CO)cc1 (centres unmarked) [Example 156] |
| E (E = >25-75% remaining) | ≥ 0.025 µM | ≥ 0.025 µM | F (F = >75-100% remaining) | Cc1ccc(-c2c(-c3ccc4c(c3)CN(C3CCC(=O)NC3=O)C4=O)cnn2C)cc1CO (centres unmarked) [Example 157] |
| E (E = >25-75% remaining) | ≥ 0.025 µM | ≥ 0.025 µM | F (F = >75-100% remaining) | Cn1ncc(-c2ccc3c(c2)CN(C2CCC(=O)NC2=O)C3=O)c1-c1cccc(CN2CCCC2)c1 (centres unmarked) [Example 158] |
| D (D = >10- 25% remaining) | < 0.025 µM | ≥ 0.025 µM | F (F = >75-100% remaining) | Cn1ncc(-c2ccc3c(c2)CN(C2CCC(=O)NC2=O)C3=O)c1-c1ccc(N2CCCC2)cc1 (centres unmarked) [Example 159] |
| E (E = >25-75% remaining) | ≥ 0.025 µM | ≥ 0.025 µM | C (C = 0-10% remaining) | Cn1ncc(-c2ccc3c(c2)CN(C2CCC(=O)NC2=O)C3=O)c1-c1ccc(S(=O)(=O)NC2CCCCC2)cc1 (centres unmarked) [Example 160] |
| D (D = >10- 25% remaining) | < 0.025 µM | ≥ 0.025 µM | F (F = >75-100% remaining) | Cc1ccccc1-c1c(-c2ccc3c(c2)CN(C2CCC(=O)NC2=O)C3=O)ncn1C (centres unmarked) [Example 161] |
| C (C = 0-10% remaining) | < 0.025 µM | < 0.025 µM | E (E = >25-75% remaining) | Cc1cccc(-c2c(-c3ccc4c(c3)CN(C3CCC(=O)NC3=O)C4=O)ncn2C)c1 (centres unmarked) [Example 162] |
| C (C = 0-10% remaining) | < 0.025 µM | ≥ 0.025 µM | E (E = >25-75% remaining) | Cn1cnc(-c2ccc3c(c2)CN(C2CCC(=O)NC2=O)C3=O)c1-c1ccc(O)cc1 (centres unmarked) [Example 163] |
| D (D = >10- 25% remaining) | < 0.025 µM | ≥ 0.025 µM | F (F = >75-100% remaining) | Cn1cnc(-c2ccc3c(c2)CN(C2CCC(=O)NC2=O)C3=O)c1-c1ccc(C#N)cc1 (centres unmarked) [Example 165] |
| E (E = >25-75% remaining) | < 0.025 µM | ≥ 0.025 µM | F (F = >75-100% remaining) | Cn1ncc(-c2ccc3c(c2)CN(C2CCC(=O)NC2=O)C3=O)c1-c1cccc(Cl)c1 (centres unmarked) [Example 173] |
| D (D = >10- 25% remaining) | < 0.025 µM | < 0.025 µM | E (E = >25-75% remaining) | Cn1ncc(-c2ccc3c(c2)CN(C2CCC(=O)NC2=O)C3=O)c1-c1ccc(Cl)cc1 (centres unmarked) [Example 174] |
| D (D = >10- 25% remaining) | < 0.025 µM | ≥ 0.025 µM | F (F = >75-100% remaining) | Cn1cnc(-c2ccc3c(c2)CN(C2CCC(=O)NC2=O)C3=O)c1-c1ccccc1Cl (centres unmarked) [Example 175] |
| D (D = >10- 25% remaining) | < 0.025 µM | < 0.025 µM | F (F = >75-100% remaining) | Cn1ncc(-c2ccc3c(c2)CN(C2CCC(=O)NC2=O)C3=O)c1-c1cc(F)cc(F)c1 (centres unmarked) [Example 178] |
